Test results as given in article PMC9696974 (Pharmaceutics, 2022).

Legend:
Solubility in water = assay type: physicochemical
ct-DNA [1] = assay: Fluorimetric titration with ct-DNA, Scatchard equation; assay type: binding, calf; design: key: The changes were too small to allow an accurate calculation of the binding constant; conditions: I = 0.05 M
Method: (§1) Experiments were conducted in an aqueous buffer solution (pH = 7.0 or pH= 5.0, I = 0.05 M, sodium cacodylate buffer). For the UV-Vis spectra were used Varian Cary 100 Bio spectrometer, for fluorescence spectra we used the Varian Cary Eclipse fluorimeter and for CD spectra we used the JASCO J815 spectropolarimeter, all conducted at 25.0 °C using appropriate quartz cuvettes (path length: 1 cm).
(§2) Polynucleotides were purchased as noted: poly dAdT-poly dAdT, poly dGdC-poly dGdC, poly A-poly U (ds-RNA), (Sigma-Aldrich, Schnelldorf, Germany), calf thymus (ct)-DNA (Sigma-Aldrich, Schnelldorf, Germany) and dissolved in sodium cacodylate buffer, I = 0.05 M, pH = 7.0. The ct-DNA was sonicated and filtered through a 0.45 µm filter to obtain mostly short (ca. 100 base pairs) rod-like B-helical DNA fragments. The concentration of DNA or RNA was determined spectroscopically as the c(nucleobase) using producer-provided molar extinction coefficients.
Fortunately, strong emission from the compounds studied allowed fluorimetric titrations to be performed at much lower concentrations of the dyes (c = 5 × 10^−8 M), thus preventing precipitation of non-methylated 1 or 2, and allowing for the collection of numerous data points at excess of DNA/RNA binding sites over c(dye). […] Intriguingly, mixed sequence ct-DNA caused emission quenching of 1M at an excess of dye over ct-DNA (r > 0.1), and such quenching could be attributed to aggregation of 1M along DNA, while at an excess of ct-DNA over dye (r << 0.1), emission increased. The emission of 2M was indiscriminately quenched by all ds-DNA/RNA (Figure 2d).
(§3) Processing of fluorimetric titrations by means of the Scatchard equation [56, 57] yielded binding constants (Table 2). […] Affinities of 1 and 2 toward BSA were the same at both pH values, supporting the conclusion that neutral forms of 1 and 2 were bound.

[2] = pKa from pH dependence of UV/vis spectrum; assay type: physicochemical; conditions: water (0.001 M HCl in miliQ water, titrated with NaOH), UV/vis spectra vs pH in water, c = 2.0 × 10^−5 M
ct-DNA [3] = assay: Thermal denaturation of ct-DNA (∆Tm); assay type: binding, calf; conditions: r = 0.1, pH 5.0, sodium cacodylate buffer, I = 50 mM
Method: as §1, §2
Thermal denaturation of ds-DNA, ds-RNA and their complexes with studied compounds was performed by monitoring the absorption change at 260 nm as a function of temperature. Tm values are the midpoints of the transition curves determined from the maximum of the first derivative and checked graphically by the tangent method. The ∆Tm values were calculated by subtracting the Tm of the free nucleic acid from the Tm of the complex. Every ∆Tm value here reported was the average of at least two measurements. The error in ∆Tm is ± 0.5 °C.

BSA = BSA (Bos taurus, UniProt P02769); assay: Fluorimetric titration with BSA, Scatchard equation; assay type: binding, bovine; conditions: pH 7, sodium cacodylate buffer, I = 0.05 M; read-out: Binding constant logKs BSA (converted)
BSA, sequence (P02769 25-607): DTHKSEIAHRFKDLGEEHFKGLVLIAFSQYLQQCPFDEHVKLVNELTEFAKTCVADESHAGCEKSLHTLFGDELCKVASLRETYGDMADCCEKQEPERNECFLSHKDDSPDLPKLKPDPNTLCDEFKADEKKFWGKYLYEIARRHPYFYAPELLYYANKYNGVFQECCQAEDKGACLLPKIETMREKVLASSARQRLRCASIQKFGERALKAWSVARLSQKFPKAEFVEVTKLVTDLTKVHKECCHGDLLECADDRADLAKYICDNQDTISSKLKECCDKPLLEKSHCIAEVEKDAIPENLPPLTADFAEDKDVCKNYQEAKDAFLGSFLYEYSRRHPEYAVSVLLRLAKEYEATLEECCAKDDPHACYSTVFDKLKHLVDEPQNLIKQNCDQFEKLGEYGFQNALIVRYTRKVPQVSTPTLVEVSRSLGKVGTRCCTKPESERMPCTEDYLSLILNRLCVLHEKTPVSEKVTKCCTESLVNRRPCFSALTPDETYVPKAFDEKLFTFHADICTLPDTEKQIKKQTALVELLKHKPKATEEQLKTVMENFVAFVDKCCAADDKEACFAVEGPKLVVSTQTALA
Method: as §1
As the pharmacokinetic properties of small molecules often depend on a binding affinity toward transport proteins (such as serum albumin), we performed fluorimetric titrations with BSA. The emission of both 1M and 2M (Supplementary Information, Figures S15 and S16), was strongly quenched, with compound 2M showing a lower affinity in comparison to ds-DNA/RNA, while the affinity of 1M was similar to that towards ds-DNA/RNA (Table 2).
as §3

A549 cells = assay: MTT cell viability assay, A549, with or without UV light; assay type: cell-based, human; conditions: A549
Method: Cells. Commercially available from American Type Culture Collection (ATCC), human epithelial lung adenocarcinoma A549 (ATCC® CCL-185™) and human normal lung fibroblast WI-38 (ATCC® CCL-75™) were grown according to supplier’s conditions, namely in Dulbecco Modified Eagle’s Medium (DMEM, Sigma Aldrich, St. Louis, MO, USA) supplemented with 10% of fetal bovine serum (FBS, Sigma Aldrich, USA). Cells were incubated in the cell incubator (Thermo Fischer Scientific, Waltham, MA, USA) at 37 °C and 5% CO2 in a humidified atmosphere.
Cell viability assay. In order to obtain a 10 mM stock solution chemical compounds (2M, 1, and 1M) were sterilely diluted in an appropriate volume of dimethyl sulfoxide solution (DMSO, Gram-Mol, Zagreb, Croatia). Solutions were kept in the dark and stored at 4 °C. The cytotoxic effects of each compound were assayed on A549 and WI-38 cells. […] Briefly, cells were seeded in 96-well tissue culture plates and 24 h later treated with 2M, 1, or 1M in the concentration range of 10–0.1 μM. Cells treated with the same dilutions of DMSO represented the control, while cells treated only with DMEM (10% FBS) represented the negative control. After 72 h, the media was removed, MTT solution was added into each well, and the plate was incubated (37 °C, 5% CO2) for 3 h. The resulting MTT-formazan products were dissolved using DMSO, and their absorbance at 600 nm was measured using a microplate reader.
For determining the effect of UV exposure, cells were seeded on two plates and treated with working solutions of the respective compounds as previously described. Plates were incubated (37 °C, 5% CO2) for 90 min, allowing the compounds to enter the cells. Then, one plate was exposed to UV light (Luzchem reactor, 350 nm, 8 lamps, in total 8 W, dose 50.6 mWm^−2; ~18 cm lamp to cell-plate) for 5 min, 3 days in a row at the same time each day, while the other plate was left in the cell incubator in the dark and served as a control.

c1cc(-c2cc3ccc4cc(-c5ccncc5)cc5ccc(c2)c3c45)ccn1 [compound 2]
Solubility in water (Solubility in water): poorly soluble in water
Binding constant logKs ct-DNA (ct-DNA [1]; pH 5, sodium cacodylate buffer): 5.7
Binding constant logKs ct-DNA (ct-DNA [1]; pH 7, sodium cacodylate buffer): b
pKa [2]: < 4
∆Tm ct-DNA (ct-DNA [3]): 1.5 °C
Kd (BSA): 5.01 µM
Cytotoxic effect (cell survival, Figure S25) (A549 cells): no cytotoxic effect
